Assay results reported in patent US12404242B2, “Compositions and methods for making and using small molecules in the treatment of cancer” (Reglagene, Inc., priority 2021, dated 2025).
Converted amounts (≈) assume the structure as drawn. Read-outs that look alike come from different tables or passages of the source.

Legend:
LNCaP cells = test: Cell viability (AlamarBlue), LNCaP prostate cancer cells; assay type: cell-based, human; settings: Homo sapiens, LNCaP, 72 h, 72 hours of treatment
How it was run: (§1)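 Following a 72-hour incubation with escalating compound doses, applied one day after seeding, AlamarBlue fluorescence gave viability relative to untreated cells, from which half-maximal effective concentrations were calculated.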

[1] = Plasma and brain tissue levels after oral dose, brain tumor xenograft mice; assay type: in vivo, CrTac:NCr-Foxn1nu athymic nude mouse; settings: CrTac:NCr-Foxn1nu athymic nude, single oral dose 100 mg/kg
Experimental: In another exemplary method, levels of Compound 19A were determined in plasma and brain tissue following administration. For these studies, a CrTac:NCr-Foxn1^nu athymic nude mouse strain was used as an acceptable mouse model. For these experiments, CrTac:NCr-Foxn1^nu athymic nude mouse received […] of tumors implanted into the brain tissues. Compound 19A was then administered to the mice orally as a homogenous suspension in DMSO: (PEG 400: PVP=95:5)=1:4. A single dose of 100 mg/kg of Compound 19A was administered in this manner. Concentrations of the Compound 19A in plasma and brain tissue (after extraction) were measured using HPLC-MS quantitation.
FIG. 51 and Table 8 illustrate increasing concentrations of Compound 19A in both the left, healthy brain tissue and the right experimental brain tissue containing tumor as well as in plasma over time.

U87 cells = test: Cell viability (AlamarBlue), U87 glioblastoma cells; assay type: cell-based, human; settings: 72 hours of treatment
How it was run: as §1

MCF7 cells = test: Cell viability (AlamarBlue), MCF7 breast cancer cells; assay type: cell-based; settings: Homo sapiens, 72 hours of treatment
Experimental: (§2) In another exemplary method, half maximal effective concentration (EC50) was determined for some compounds and their isomers as disclosed herein in a variety of human cancer cell lines. In brief, cells from two prostate cancer cell lines (LNCaP, 22RV1), one glioblastoma cell line (U87), one breast cancer cell line (MCF7), a glioma cell line (LN18), a normal prostate cell line (RWPE1), and a glioblastoma cell line (T98G) were plated in a multi-well plate. After 24 hours, one of the compounds herein was added to the well at increasing concentrations. After 72 hours of treatment, cell viability was assessed using AlamrBlue® (Invitrogen) and fluorescence was read using the CLARIOstar Plus Multilabel Plate Reader (BMG Labtech). Samples were normalized to no treatment controls. EC50 values were determined using GraphPad Prism.

22RV1 cells = test: Cell viability (AlamarBlue), 22RV1 prostate cancer cells; assay type: cell-based, human; settings: 72 hours of treatment
How it was run: as §1

RWPE1 cells = test: Cell viability (AlamarBlue), RWPE1 normal prostate cells; assay type: cell-based, human; parameters: key to EC50 (μM) in RWPE1 cells: Inactive: less than 50% inhibition at the highest concentration tested at 50 μM; settings: 72 hours of treatment, normal prostate cell line
How it was run: as §1

[2] = tested on: LN18 glioblastoma cancer cells; test: Combination with Temozolomide, Bliss synergy in LN18 cells; assay type: cell-based; settings: Temozolomide 0 to 1000 uM, compound 0.625 to 10 uM
Experimental: Synergy was calculated with the Bliss independence model. Compounds were combined at concentrations of 0 to 1000 uM for Temozolomide and 0.625 to 10 uM for compounds 19 and 59.

[3] = tested on: 22Rv1 prostate cancer cells; test: Combination with Rabusertib, Bliss synergy in 22Rv1 cells; assay type: cell-based; settings: Rabusertib 0 to 30 uM, compound 0.625 to 5 uM
Experimental: Synergy was calculated with the Bliss independence model. Compounds were combined at concentrations of 0 to 30 uM for Rabusertib and 0.625 to 5 uM for compounds 73 and 76.

LN18 cells = test: Cell viability (AlamarBlue), LN18 glioma cells; assay type: cell-based; settings: Homo sapiens, LN-18, 72 hours of treatment
Experimental: as §2

[4] = Kinetic solubility in aqueous PBS buffer (HPLC-MS); assay type: physicochemical; settings: kinetic from dmso stock, DMSO stock mixed with aqueous PBS buffer, filtered, read-out: Kinetic Solubility
How it was run: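 A concentrated DMSO stock was mixed with aqueous PBS buffer and filtered. The filtrate was quantified against an HPLC-MS calibration curve.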

T98G cells = test: Cell viability (AlamarBlue), T98G glioblastoma cells; assay type: cell-based; settings: Homo sapiens, 72 hours of treatment
Experimental: as §2

[5] = Plasma and brain levels in healthy mouse; assay type: in vivo; settings: oral dose
From the text: FIG. 53A-53B represent an exemplary experiment illustrating concentration of Compound 98 in plasma after oral dose (FIG. 53A); FIG. 53B represents levels of Compound 98 in plasma and brain tissue after administration to a rodent model in accordance with certain embodiments of the present disclosure.
FIG. 53A illustrates concentrations of Compound 98 in healthy mouse plasma over time. FIG. 53B and Table 9 illustrates concentrations of Compound 98 in healthy mouse plasma and brain at 0.5, 1 and 2 hrs.

[6] = mouse, brain tissue (left, healthy), read-out: Brain Tissue Healthy, Left concentration
[7] = mouse, brain tissue (right, containing tumor), read-out: Brain Tissue Tumor, right concentration
[8] = plasma, tumor-bearing nude mouse, read-out: Plasma concentration
[9] = brain, read-out: Healthy Brain concentration
[10] = plasma, read-out: Plasma concentration

Question: For COC1CC(C(=O)NC(=O)Nc2ccc(Oc3ccc(Cl)cn3)c(C)c2)C1 (single isomer, unassigned) [Compound 19A, 1-{4-[(5-chloropyridin-2-yl)oxy]-3-methylphenyl}-3-(3-methoxycyclobutanecarbonyl) urea], which EC50 (LNCaP cells) is on record?
Answer: 0.87 µM

Question: What about the concentration at 0.5 h [1, 6] of the same molecule?
Answer: 767 ng/g

Question: What about the concentration at 1 h [1, 6] of the same molecule?
Answer: 1230 ng/g

Question: And the concentration at 6 h [1, 6]?
Answer: 1460 ng/g

Question: And the concentration at 0.5 h [1, 7]?
Answer: 828 ng/g

Question: And the concentration at 1 h [1, 7]?
Answer: 1460 ng/g

Question: What about the concentration at 6 h [1, 7] of the same molecule?
Answer: 1520 ng/g

Question: What about the concentration at 0.5 h [1, 8] of the same molecule?
Answer: 973 ng/mL

Question: What about the concentration at 1 h [1, 8] of the same molecule?
Answer: 1340 ng/mL

Question: What about the concentration at 6 h [1, 8] of the same molecule?
Answer: 1510 ng/mL

Question: And the EC50 (U87 cells)?
Answer: 2.2 µM

Question: And the EC50 (MCF7 cells)?
Answer: 2.8 µM

Question: What about the EC50 (22RV1 cells) of the same molecule?
Answer: 0.95 µM

Question: What about the “EC50 (μM) in RWPE1 cells” value (RWPE1 cells) of the same molecule?
Answer: Inactive

Question: With COC1CC(C(=O)NC(=O)Nc2ccc(Oc3nc(C)c(C)s3)c(C)c2)C1 (centres unmarked) [Compound 59, N-((4-((4,5-dimethylthiazol-2-yl)oxy)-3-methylphenyl)carbamoyl)-3-methoxycyclobutane-1-carboxamide] as the molecule, how does the EC50 (LNCaP cells) read?
Answer: 0.27 µM

Question: What about the “Bliss Synergy value, combination with Temozolomide” value ([2]; LN18 cells, Bliss independence model) of the same molecule?
Answer: 20.0

Question: What about the “effect of combination with Temozolomide on cancer cell viability” value [2] of the same molecule?
Answer: synergistic decrease in cancer cell viability

Question: And the EC50 (U87 cells; Homo sapiens, U-87 MG, 72 h)?
Answer: 0.002 µM

Question: What about the EC50 (22RV1 cells; Homo sapiens, 22Rv1, 72 h) of the same molecule?
Answer: 0.08 µM

Question: With COC1CC(C(=O)NC(=O)Nc2cc(C)c(Oc3ccc(Cl)cn3)c(F)c2)C1 (centres unmarked) [Compound 76, N-((4-((5-chloropyridin-2-yl)oxy)-3-fluoro-5-methylphenyl)carbamoyl)-3-methoxycyclobutane-1-carboxamide] as the molecule, how does the “Bliss Synergy value, combination with Rabusertib” value ([3]; 22Rv1 cells, Bliss independence model) read?
Answer: 15.3

Question: And the “effect of combination with Rabusertib on cancer cell viability” value [3]?
Answer: synergistic decrease in cancer cell viability

Question: What about the EC50 (U87 cells; Homo sapiens, U-87 MG, 72 h) of the same molecule?
Answer: 0.1 µM

Question: For COC12CC(C(=O)NC(=O)Nc3ccc(Oc4ccc(Cl)cn4)c(C)c3)(C1)C2 [Compound 84, N-((4-((5-chloropyridin-2-yl)oxy)-3-methylphenyl)carbamoyl)-3-methoxybicyclo[1.1.1]pentane-1-carboxamide], which EC50 (U87 cells; Homo sapiens, U-87 MG, 72 h) is on record?
Answer: 0.16 µM

Question: What about the EC50 (LN18 cells) of the same molecule?
Answer: 0.01 µM

Question: Which solubility kinetic [4] does the source give for COC12CC(C(=O)NC(=O)Nc3cc(C)c(Oc4ncc(Cl)cn4)c(F)c3)(C1)C2 [Compound 90, N-((4-((5-chloropyrimidin-2-yl)oxy)-3-fluoro-5-methylphenyl)carbamoyl)-3-methoxybicyclo[1.1.1]pentane-1-carboxamide] here?
Answer: 2.17 µM (≈ 0.913 µg/mL)

Question: What about the EC50 (U87 cells; Homo sapiens, U-87 MG, 72 h) of the same molecule?
Answer: 0.065 µM

Question: And the EC50 (LN18 cells)?
Answer: 0.034 µM

Question: And the EC50 (T98G cells)?
Answer: 0.0384 µM

Question: With COC12CC(C(=O)NC(=O)Nc3cc(C)c(Oc4ccc(F)cn4)c(F)c3)(C1)C2 [Compound 91, N-((3-fluoro-4-((5-fluoropyridin-2-yl)oxy)-5-methylphenyl)carbamoyl)-3-methoxybicyclo[1.1.1]pentane-1-carboxamide] as the molecule, how does the EC50 (U87 cells; Homo sapiens, U-87 MG, 72 h) read?
Answer: 0.63 µM

Question: And the EC50 (LN18 cells)?
Answer: 0.087 µM

Question: What about the EC50 (T98G cells) of the same molecule?
Answer: 0.167 µM

Question: Which solubility kinetic [4] does the source give for COC12CC(C(=O)NC(=O)Nc3ccc(C)c(Oc4ncccn4)c3)(C1)C2 [Compound 97, 3-methoxy-N-((4-methyl-3-(pyrimidin-2-yloxy)phenyl)carbamoyl)bicyclo[1.1.1]pentane-1-carboxamide] here?
Answer: 5.8 µM (≈ 2.14 µg/mL)

Question: What about the EC50 (U87 cells; Homo sapiens, U-87 MG, 72 h) of the same molecule?
Answer: 0.02 µM

Question: What about the EC50 (LN18 cells) of the same molecule?
Answer: 0.011 µM

Question: And the EC50 (T98G cells)?
Answer: 0.026 µM

Question: Which concentration at 0.5 h [5, 9] does the source give for COC12CC(C(=O)NC(=O)Nc3ccc(C)c(Oc4ccccn4)c3)(C1)C2 [Compound 98, 3-methoxy-N-((4-methyl-3-(pyridin-2-yloxy)phenyl)carbamoyl)bicyclo[1.1.1]pentane-1-carboxamide] here?
Answer: 230 ng/g

Question: And the concentration at 1 h [5, 9]?
Answer: 234 ng/g

Question: What about the concentration at 2 h [5, 9] of the same molecule?
Answer: 257 ng/g

Question: What about the concentration at 0.5 h [5, 10] of the same molecule?
Answer: 424 ng/mL

Question: What about the concentration at 1 h [5, 10] of the same molecule?
Answer: 490 ng/mL

Question: What about the concentration at 2 h [5, 10] of the same molecule?
Answer: 399 ng/mL

Question: And the EC50 (U87 cells; Homo sapiens, U-87 MG, 72 h)?
Answer: 0.02 µM

Question: What about the EC50 (LN18 cells) of the same molecule?
Answer: 0.07 µM

Question: What about the EC50 (T98G cells) of the same molecule?
Answer: 0.0189 µM
